Measurements reported in article PMC5458187, “Inhibitor SBFI26 suppresses the malignant progression of castration-resistant PC3-M cells by competitively binding to oncogenic FABP5” (Oncotarget, 2017).
Several values for one entry are separate records, joined by “and”; a condition that tells them apart may be missing. Equal values may be shown once. Each block holds one molecule with its values, some of them ahead of it.

What was measured:
[1] = system: PC3-M cells; test: Cell viability MTT assay; format: cell-based, human; conditions: 24 h
Method: (§1) PC3-M cells (5 × 10^4) were plated in triplicate in 96 well plates and incubated overnight. Cells were treated with different concentrations of SBFI26 (25–125 μM) for 24 h. Cell viability was assessed using MTT assay, as described previously. The anti-proliferative effect of the best concentration for SBFI26 was determined after 6 days of treatment.

[2] = system: PC3-M cells; test: Proliferation MTT assay; format: cell-based, human; conditions: 100 μM
Method: as §1

[3] = system: PC3-M cells; test: Wound healing migration assay; format: cell-based, human; conditions: 100 μM, 24 h; control gap closure 94%
Method: Wound healing migration assay was carried out to evaluate the effect of SBFI26 on the migratory rate of PC3-M cells. Wounds were generated by scratching the monolayer cells with a blue pipette tip. The floating cells were removed by washing with PBS and inhibitors were added to the culture medium. The wound was photographed under the microscope at 0, 12 and 24 h after treatment and the wound widths were assessed by quantitative analysis using ImageJ software.

[4] = system: PC3-M cells; test: Boyden chamber invasion assay; format: cell-based, human; conditions: 100 μM, 24 h
Method: PC3-M cells in serum-free medium were seeded in the upper Boyden chamber (BD Biosciences) in triplicate at a density of 2.5 × 10^4 cells per well in serum-free medium. Complete medium was added to the lower chambers. After 3 hours of incubation, 100 μM SBFI26 was added to the upper chambers. After 24 h of incubation, cells that invaded the lower chambers were stained with crystal violet and counted with a cell counter.

[5] = system: PC3-M cells; test: Soft-agar colony formation assay; format: cell-based, human; conditions: 100 μM
Method: Low melting agarose was seeded in 6-well plates and 5 × 10^4 cells/well layered on agar, followed by 200 μl of medium alone or medium with FABP5 inhibitor SBFI26. Colonies larger than 300 μm in each well were counted 2 weeks later in a similar way to that described previously.

[6] = system: PC3-M-Luc8 cells implanted orthotopically into the prostate gland; test: Orthotopic nude mouse assay of tumorigenicity and metastasis; format: in vivo, Balb/c nude mice
Method: PC3-M cells were transfected with the pGL4.50 [luc2/CMV/Hygro] vector (Promega) using FuGene HD transfection reagent (Promega) following the manufacturer’s instructions. Individual colonies were isolated by ring cloning and 3 colonies that stably-expressed the highest bioluminescence signals were identified using D-luciferin (Promega) with a Varioskan Flash Reader (Thermo Scientific). Association of the luminescence intensity with the number of cells was assessed by an IVIS imaging system (Perkin Elmer). Cells (5 × 10^5) from PC3-M- luc2 colony were suspended in 30 μL PBS and orthotopically implanted into the dorsal prostate of 33 male Balb/c nude mice (Charles River, UK) (8–10 weeks old), as described previously. One week later, tumour-bearing mice were divided into 2 groups (8 each) and subjected to the following intraperitoneally injections: 1) control with PBS; 2) SBFI26, 1mg/kg. Injections were repeated every two days for 25 days and the metastatic loci were monitored weekly using the IVIS after mice were subcutaneously injected with D-luciferin (150 mg/kg). Bioluminescence images was analysed using the Living Imagine software (Xenogen) and the measurement recorded was based on total photons/second (p/s) within each defined region of interest.

[7] = system: PC3-M cells inoculated into the right flank; test: Subcutaneous nude mouse tumorigenicity assay; format: in vivo, nude mice
Method: PC3-M cells (2 × 10^6) in 200 μL PBS were subcutaneously injected into the right flank region of the mouse (6–8 week old) to test the suppressive effect of the inhibitors on tumorigenicity. In the first round, 3 groups of mice (8 each) were used: 1) control with PBS; 2) 1mg/kg SBFI26, injected from the 1st day after cell inoculation; 3) 1mg/kg SBFI26, injected from the 7th day after cell inoculation. In the second round, 2 groups of mice (5 each) were used and at 7 days after the cell inoculation, each group was subjected to different intra-tumoural injections: 1) control with PBS; 2) PPARγ antagonist (GW9662, 1mg/kg) (Sigma). The injections were repeated every 2 days for 30 days, tumour size was measured every 3–4 days and the volume calculated by the formula of L× W×H×0.5236 [56]. Work was performed in accordance with UKCCCR guidelines under Home Office License PPL40/2963.

[8] = system: fatty acid uptake of PC3-M cells; test: Fatty acid uptake assay with BODIPY-labelled fatty acid; format: cell-based, human; conditions: 30 min; for cells with BODIPY-labelled fatty acid uptake (M2): control 92.9%
Method: Assay for fatty acid uptake was performed using red fluorescence-labelled BODIPY [57]. The fluorescence intensity from cells before and 30 minutes after adding BODIPY was measured to determine fatty acid uptake. In inhibition and competition experiments, different concentrations of unlabelled lead compound SBFI26 (50–200 μM) with the same concentration of labelled BODIPY were added directly to the highly malignant PC3-M cells.

[9] = system: p-PPARγ1 and p-PPARγ2 in PC3-M cells; test: Western blot of phosphorylated PPARγ in PC3-M cells; format: cell-based, human; conditions: for reduction in level of p-PPARγ1 / reduction in level of p-PPARγ2: untreated set at 1
[10] = system: p-PPARγ1 and p-PPARγ2 in 22RV1 cells; test: Western blot of phosphorylated PPARγ in 22RV1 cells; format: cell-based, human; conditions: for effect on levels of p-PPARγ1 and 2: 22RV1, 24 h
[11] = system: PPARγ; design: method as in PMID 23236415; conditions: cited from earlier work
[12] = biological target: wtrFABP5 (Homo sapiens, UniProt Q01469); test: DAUDA displacement assay (ligand binding); conditions: for relative level of fluorescence intensity after adding ligand to the DAUDA-wtrFABP5 complex: 10 μM ligand, 2 μM DAUDA, 3 μM wtrFABP5, complex without ligand 2.65 ± 0.14; for Ki: displacement of 2 μM DAUDA from 3 μM wtrFABP5, ligand 0.5–20 μM, Ki = IC50/1+(DAUDA/Kd), read-out: inhibition constant Ki (binding affinity)
Text: The fatty acid-binding ability of wtrFABP5 was examined by using the DAUDA displacement assay which used fatty acids and different chemical compounds to replace the fluorescently labelled fatty acid analogue DAUDA (Cayman). […] For each experiment, the fluorescence data were normalized to the peak fluorescent intensity, and then subtracted from the data of samples without protein. The data were fitted by nonlinear regression using GraphPad Prism software to a saturation binding curve model to estimate the apparent dissociation constant (Kd) and maximal fluorescence intensity (Bmax). […] The Ki of each ligand was determined using the equation Ki = IC50/1+ (DAUDA concentration /Kd).

Chain of wtrFABP5 (Q01469 whole entry): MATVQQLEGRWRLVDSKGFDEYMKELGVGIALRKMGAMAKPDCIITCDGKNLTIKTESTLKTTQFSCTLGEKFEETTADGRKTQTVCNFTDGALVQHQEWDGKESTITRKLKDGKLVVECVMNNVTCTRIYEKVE

Molecule: O=C(O)C1C(c2ccccc2)C(C(=O)Oc2cccc3ccccc23)C1c1ccccc1 (stereo not drawn) [SBFI26, α-truxillic acid 1-naphthyl mono-ester]
reduction in cell numbers ([1]; 100 μM): 26%
concentration producing maximum suppression of viability ([1]; MTT): 100 µM
reduction of proliferation rate [2]: 17 times
reduction in wound size [3]: 19%
suppression of invasion ([4]; vs control): 95.5%
mean number of invaded cells ([4]; control 22 ± 3): 1 ± 1
inhibition of colony formation ([5]; 2 weeks, vs control): 100%
number of colonies formed in soft agar ([5]; after 2 weeks, control 124 ± 18): 0
suppression in metastasis incidence compared to control ([6]; 25 days, 1 mg/kg i.p.): 50%
mice that produced visceral metastasis (number/total) ([6]; 25 days, 1 mg/kg i.p., control 7/7): 4/8
mice that produced visceral metastasis ([6]; 25 days, 1 mg/kg i.p., control 100%): 50%
metastasis sites by histological staining ([6]; H&E, control: all mice, mainly liver and lung): half of the mice developed liver metastases with no metastasis in the lung
bioluminescence signal ([6]; day 25, 1 mg/kg intraperitoneally, control 31.5 × 10^8): 6.66 × 10^8 p/sec/cm^2
suppression of tumour volume vs control ([7]; SBFI26 1 mg/kg for 31 days): 52%
average tumour volume on termination ([7]; SBFI26 1 mg/kg for 31 days, n = 8, control 627 ± 120 mm^3): 302 ± 86 mm^3
unstained cells (M1) ([8]; 50 μM): 20.76%
cells with BODIPY-labelled fatty acid uptake (M2) ([8]; 50 μM): 79.24%
unstained cells (M1) ([8]; 100 μM): 32.31%
cells with BODIPY-labelled fatty acid uptake (M2) ([8]; 100 μM): 67.7% and 67.69%
unstained cells (M1) ([8]; 150 μM): 30.88%
cells with BODIPY-labelled fatty acid uptake (M2) ([8]; 150 μM): 69.12%
unstained cells (M1) ([8]; 200 μM): 30.79%
cells with BODIPY-labelled fatty acid uptake (M2) ([8]; 200 μM): 69.21%
average reduction in both PPARγ activated isoforms [9]: about 50%
reduction in level of p-PPARγ1 ([9]; 24 hours): 44%
reduction in level of p-PPARγ2 ([9]; 24 hours): 46%
average reduction in both PPARγ activated isoforms ([10]; 22RV1): 33.5%
effect on levels of p-PPARγ1 and 2 [10]: suppressed the levels of both p-PPARγ isoforms
activity at PPARγ [11]: weak agonist of PPARγ

Molecule: CN(CCOc1ccc(CC2SC(=O)NC2=O)cc1)c1ccccn1 (centres unmarked) [rosiglitazone]
effect on levels of p-PPARγ isoforms ([9]; 24 hours): significantly increased levels of both p-PPARγ isoforms

Molecule: CCCCCCCC/C=C\CCCCCCCC(=O)O [oleic acid]
relative level of fluorescence intensity after adding ligand to the DAUDA-wtrFABP5 complex [12]: 1.68 ± 0.09
Ki [12]: 1890 nM

Molecule: wtrFABP5: FABP5 protein (wtrFABP5) used as binding target and as treatment of 22RV1 cells
effect on levels of p-PPARγ1 and 2 [10]: significantly increased levels of both p-PPARγ1 and 2

relative level of fluorescence intensity after adding ligand to the DAUDA-wtrFABP5 complex [12]: 1.37 ± 0.07
Ki [12]: 1570 nM
Molecule: CCCCC/C=C\C/C=C\CCCCCCCC(=O)O [linoleic acid]

Kd ([12]; 3 μM wtrFABP5 titrated with DAUDA 0.4–3 μM, ex 345/em 530 nm, read-out: apparent dissociation constant (Kd) of DAUDA to wtrFABP5): 1860 ± 160 nM
maximal fluorescence intensity (Bmax) ([12]; DAUDA titration to 3 μM wtrFABP5): 3.579
Molecule: CN(C)c1cccc2c(S(=O)(=O)NCCCCCCCCCCC(=O)O)cccc12 [DAUDA]

Molecule: O=C(Nc1ccccc1)c1cc([N+](=O)[O-])ccc1Cl [GW9662]
suppression of tumour size vs control ([7]; GW9662 1 mg/kg from day 7): 67%
average size of tumours ([7]; GW9662 1 mg/kg intra-tumoural from day 7, n = 5, control 774 ± 202 mm^3): 252 ± 84 mm^3
reduction in level of p-PPARγ1 ([9]; 24 hours): 52%
reduction in level of p-PPARγ2 ([9]; 24 hours): 51%
